The numbers were not newly measured in US12064400B1 (priority 2022, dated 2024), which cites them from elsewhere.

The conditions of data set [1]: in vivo.
For data set [2] the following is noted: in vivo. The source holds these as a separate data set.

As to `COc1ccc2cc([C@H](C)C(=O)O)ccc2c1` [naproxen sodium], the “time in which a human body may absorb peak levels” value in data set [1] is “one to two”.
On to `COc1ccc2cc([C@H](C)C(=O)O)ccc2c1` [naproxen], for which the “time in which a human body may absorb peak levels” value in data set [1] is “two to four”. Moreover, in data set [2], the “higher risk for developing a bleed when taking naproxen” value was “ten”; the “people in whom common and serious side effects may occur” value is reported as “three to nine”.
